According to patent US20030134859A1 (SANKYO COMPANY, LIMITED, priority 2000, published 2003):
Structures can show the parent of a compound that is named as a salt.

System: Rat white adipocytes
Experiment: Inhibition of the differentiation of adipocytes (Oil Red O)
Type: cell-based
Conditions: 100 nM test compound, 5 days, Oil Red O ABS550, control = 100%, blank = 0%, Table 3; for activity at 0.1 µM: Rattus norvegicus, Adipocyte, 120 h, read-out: Rate of Differentiation (%)
Method in brief: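 Rat white preadipocytes, 5,000 cells/well, given differentiation medium with compound at 100 nM final (0.1% DMSO) for 5 days at 37 °C. Lipid stained with Oil Red O, eluted in DMSO, read at 550 nm; differentiation % relative to DMSO control (100%) and blank (0%).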

SMILES | activity at 0.1 µM | also measured
N#Cc1cccc(NC(=O)c2cc([N+](=O)[O-])ccc2Cl)c1 [Example 21, N-(3-Cyanophenyl)-(2-chloro-5-nitrophenyl)carboxamide] | 63% | –
O=C(Nc1ccc([N+](=O)[O-])cc1)c1cc([N+](=O)[O-])ccc1Cl [Example 23, N-(4-Nitrophenyl)-(2-chloro-5-nitrophenyl)carboxamide] | 57.7% | –
O=C(Nc1ccc([N+](=O)[O-])cn1)c1cc([N+](=O)[O-])ccc1Cl [Example 24, N-(5-Nitropyridin-2-yl)-(2-chloro-5-nitrophenyl)carboxamide] | 59.1% | –
O=C(Nc1cccc([N+](=O)[O-])c1)c1cc([N+](=O)[O-])ccc1Cl [Example 25, N-(3-Nitrophenyl)-(2-chloro-5-nitrophenyl)carboxamide] | 84% | –
O=C(Nc1cccc(C(=O)N2CCCC2)c1)c1cc([N+](=O)[O-])ccc1Cl [Example 31] | – | Rate of Differentiation (%): 77.2%
O=C(Nc1ccncc1)c1cc([N+](=O)[O-])ccc1Cl [Example 49, N-(4-Pyridyl)-(2-chloro-5-nitrophenyl)carboxamide] | 71% | –
O=C(Nc1ccc(Cl)nc1)c1cc([N+](=O)[O-])ccc1Cl [Example 62, N-(6-Chloropyridin-3-yl)-(2-chloro-5-nitrophenyl)carboxamide] | 68.5% | –
O=C(Nc1ccc(NC(=O)c2cc([N+](=O)[O-])ccc2Cl)nc1)c1cc([N+](=O)[O-])ccc1Cl [Example 64, 2,5-bis(2-Chloro-5-nitrobenzoylamino)pyridine] | 85.5% | –
O=C(Nc1nc2cc(Cl)ccc2o1)c1cc([N+](=O)[O-])ccc1Cl [Example 75, N-(5-Chlorobenzoxazol-2-yl)-(2-chloro-5-nitrophenyl)carboxamide] | 88.6% | –
O=C(Nc1ncc(Br)cn1)c1cc([N+](=O)[O-])ccc1Cl [Example 77, N-(5-Bromopyrimidin-2-yl)-(2-chloro-5-nitrophenyl)carboxamide] | 68% | –
Nc1ccc(-c2ccc(NC(=O)c3cc([N+](=O)[O-])ccc3Cl)cc2)cc1 [Example 88, N-[4-(4-Aminophenyl)phenyl]-(2-chloro-5-nitrophenyl)carboxamide mono-hydrochloride] | – | Rate of Differentiation (%) (mono-hydrochloride): 63.3%
CS(=O)(=O)Nc1ccc(-c2ccc(NC(=O)c3cc([N+](=O)[O-])ccc3Cl)cc2)cc1 [Example 93, N-[4-[4-(Methanesulfonylamino)phenyl]phenyl]-(2-chloro-5-nitrophenyl)carboxamide] | 62.9% | –
Cc1ccc(S(=O)(=O)Nc2ccc(-c3ccc(NC(=O)c4cc([N+](=O)[O-])ccc4Cl)cc3)cc2)cc1 [Example 94, N-[4-[4-(4-Toluenesulfonylamino)phenyl]phenyl]-(2-chloro-5-nitrophenyl)carboxamide] | 68.8% | –
CC(=O)Nc1ccc(-c2ccc(NC(=O)c3cc([N+](=O)[O-])ccc3Cl)cc2)cc1 [Example 118, N-[4-(4-Acetylaminophenyl)phenyl]-(2-chloro-5-nitrophenyl)carboxamide] | 53.6% | –
O=C(Nc1ccc(-c2ccc(NC(=O)c3cc([N+](=O)[O-])ccc3Cl)cc2)cc1)c1ccccc1 [Example 120, N-[4-(4-Benzoylaminophenyl)phenyl]-(2-chloro-5-nitrophenyl)carboxamide] | 79.8% | –
O=C(Nc1ccc(-c2ccc(NC(=O)c3cc([N+](=O)[O-])ccc3Cl)cc2)cc1)c1cccnc1 [Example 124, N-[4-[4-(Pyridin-3-ylcarbonylamino)phenyl]phenyl]-(2-chloro-5-nitrophenyl)carboxamide] | 84.2% | –
O=C(Nc1ccc(-c2ccc(NC(=O)c3cc([N+](=O)[O-])ccc3Cl)cc2)cc1)c1ccncc1 [Example 126, N-[4-[4-(Pyridin-4-ylcarbonylamino)phenyl]phenyl]-(2-chloro-5-nitrophenyl)carboxamide] | 75.2% | –
CCS(=O)(=O)Nc1ccc(-c2ccc(NC(=O)c3cc([N+](=O)[O-])ccc3Cl)cc2)cc1 [Example 130, N-[4-(4-Ethanesulfonylaminophenyl)phenyl]-(2-chloro-5-nitrophenyl)carboxamide] | 64% | –
Cl.O=C(Nc1ccncc1)c1cc([N+](=O)[O-])ccc1Cl [Example 146, N-(Pyridin-4-yl)-(2-chloro-5-nitrophenyl)carboxamide Hydrochloride] | – | Rate of Differentiation (%): 78.2%
Cc1ccc(C(=O)Nc2nc3ccc(NC(=O)c4cc([N+](=O)[O-])ccc4Cl)cc3s2)cc1 [Example 149, N-[2-(4-Methylbenzoylamino)benzothiazol-6-yl]-(2-chloro-5-nitrophenyl)carboxamide] | 80.3% | –

SMILES | activity at 0.1 µM | also measured
CC(=O)c1ccc(NC(=O)c2cc([N+](=O)[O-])ccc2Cl)cc1 [Example 155, N-(4-Acetylphenyl)-(2-chloro-5-nitrophenyl)carboxamide] | 82.7% | –
O=C(Nc1ccc(-n2ccnc2)cc1)c1cc([N+](=O)[O-])ccc1Cl [Example 174, N-[4-(Imidazol-1-yl)phenyl]-(2-chloro-5-nitrophenyl)carboxamide] | 68.8% | –
O=C(Nc1ccc(-c2ccc(N3CCCCC3)cc2)cc1)c1cc([N+](=O)[O-])ccc1Cl [Example 177, N-[4-[4-(Piperidin-1-yl)phenyl]phenyl]-(2-chloro-5-nitrophenyl)carboxamide] | 14% | –
O=C(Nc1ccc(N2CCN(C(=O)c3ccccc3)CC2)cc1)c1cc([N+](=O)[O-])ccc1Cl [Example 184, N-[4-(4-Benzoylpiperazin-1-yl)phenyl]-(2-chloro-5-nitrophenyl)carboxamide] | 46.6% | –
CC(C)(C)OC(=O)Nc1ccc(-c2csc(NC(=O)c3cc([N+](=O)[O-])ccc3Cl)n2)cc1 [Example 190, N-[4-(4-tert-Butoxycarbonylaminophenyl)thiazol-2-yl]-(2-chloro-5-nitrophenyl)carboxamide] | 64.2% | –
Nc1ccc(-c2ccc(NC(=O)c3cc([N+](=O)[O-])ccc3Cl)cc2)cc1 [Example 192, N-[4-(4-Aminophenyl)phenyl]-(2-chloro-5-nitrophenyl)carboxamide] | – | Rate of Differentiation (%): 17.6%
CCCN(CCC)c1ccc(-c2ccc(NC(=O)c3cc([N+](=O)[O-])ccc3Cl)cc2)cc1 [Example 194, N-[4-[4-(N,N-Dipropylamino)phenyl]phenyl]-(2-chloro-5-nitrophenyl)carboxamide] | 37.1% | –
CCCCNc1ccc(-c2ccc(NC(=O)c3cc([N+](=O)[O-])ccc3Cl)cc2)cc1 [Example 203, N-[4-[4-(N-Butylamiino)phenyl]phenyl]-(2-chloro-5-nitrophenyl)carboxamide] | – | Rate of Differentiation (%): 32.6%
CCCNc1ccc(-c2ccc(NC(=O)c3cc([N+](=O)[O-])ccc3Cl)cc2)cc1 [Example 204, N-[4-[4-(N-Propylamino)phenyl]phenyl]-(2-chloro-5-nitrophenyl)carboxamide] | 38.3% | –
CCNc1ccc(-c2ccc(NC(=O)c3cc([N+](=O)[O-])ccc3Cl)cc2)cc1 [Example 205, N-[4-[4-(N-Ethylamino)phenyl]phenyl]-(2-chloro-5-nitrophenyl)carboxamide] | 39.8% | –
CCCCCN(CCCC)c1ccc(-c2ccc(NC(=O)c3cc([N+](=O)[O-])ccc3Cl)cc2)cc1 [Example 206, N-[4-[4-(N-Butyl-N-pentylamino)phenyl]phenyl]-(2-chloro-5-nitrophenyl)carboxamide] | 30.6% | –
CCCCN(CCCC)c1ccc(-c2ccc(NC(=O)c3cc([N+](=O)[O-])ccc3Cl)cc2)cc1 [Example 207, N-[4-[4-(N,N-Dibutylamino)phenyl]phenyl]-(2-chloro-5-nitrophenyl)carboxamide] | 32.7% | –
CCCCN(CCC)c1ccc(-c2ccc(NC(=O)c3cc([N+](=O)[O-])ccc3Cl)cc2)cc1 [Example 208, N-[4-[4-(N-Butyl-N-propylamino)phenyl]phenyl]-(2-chloro-5-nitrophenyl)carboxamide] | 35.1% | –
CCCCN(CC)c1ccc(-c2ccc(NC(=O)c3cc([N+](=O)[O-])ccc3Cl)cc2)cc1 [Example 209, N-[4-[4-(N-Butyl-N-ethylamino)phenyl]phenyl]-(2-chloro-5-nitrophenyl)carboxamide] | 40.1% | –
CCCN(CC)c1ccc(-c2ccc(NC(=O)c3cc([N+](=O)[O-])ccc3Cl)cc2)cc1 [Example 212, N-[4-[4-(N-Ethyl-N-propylamino)phenyl]phenyl]-(2-chloro-5-nitrophenyl)carboxamide] | 44% | –
CCCCCN(CCCCC)c1ccc(-c2ccc(NC(=O)c3cc([N+](=O)[O-])ccc3Cl)cc2)cc1 [Example 214, N-[4-[4-(N,N-Dipentylamino)phenyl]phenyl]-(2-chloro-5-nitrophenyl)carboxamide] | 31.7% | –
CCCCCN(CC)c1ccc(-c2ccc(NC(=O)c3cc([N+](=O)[O-])ccc3Cl)cc2)cc1 [Example 216, N-[4-[4-(N-Ethyl-N-pentylamino)phenyl]phenyl]-(2-chloro-5-nitrophenyl)carboxamide] | 32.1% | –
CCN(CC)c1ccc(-c2ccc(NC(=O)c3cc([N+](=O)[O-])ccc3Cl)cc2)cc1 [Example 217, N-[4-[4-(N,N-Diethylamino)phenyl]phenyl]-(2-chloro-5-nitrophenyl)carboxamide] | 21% | –
CCN(C)c1ccc(-c2ccc(NC(=O)c3cc([N+](=O)[O-])ccc3Cl)cc2)cc1 [Example 218, N-[4-[4-(N-Ethyl-N-methylamino)phenyl]phenyl]-(2-chloro-5-nitrophenyl)carboxamide] | 31.7% | –
O=C(Nc1ccc(-c2ccc(NC(=S)Nc3cccc(F)c3)cc2)cc1)c1cc([N+](=O)[O-])ccc1Cl [Example 245, N-[4-[4-[(3-Fluorophenyl)aminothiocarbonylamino]phenyl]phenyl]-(2-chloro-5-nitrophenyl)carboxamide] | 36.1% | –
